From ChEMBL document CHEMBL3779793, “Squaraines bearing halogenated moieties as anticancer photosensitizers: Synthesis, characterization and biological evaluation” (Eur J Med Chem, 2016)
Values belong to the molecule of their own block, whether it stands above or below them. Active and inactive are the calls of the source. The calls are words filed in the database; no cut-off is given here.

Assays:
[1] = Dark cytotoxicity against human HT1080 cells at 2 uM after 24 to 72 hrs by WST-1 assay; type: cell-based; details: ht-1080, 2 µM
[2] = Induction of singlet oxygen generation in PBS at 5 uM measured within 5 to 10 mins by DPBF-based singlet oxygen trapping method in presence of light; type: physicochemical; details: buffer
[3] = Dark cytotoxicity against human HT1080 cells at 2 to 10 uM after 24 to 72 hrs by WST-1 assay; type: cell-based; details: ht-1080, 10 µM
[4] = Dark cytotoxicity against human HT1080 cells at 0.25 to 1 uM after 24 to 72 hrs by WST-1 assay; type: cell-based; details: ht-1080, 1 µM
[5] = Drug uptake in human HT1080 cells at 1 uM by flow cytometric analysis; type: ADME, cell-based; details: ht-1080, 1 µM, TDE = time-dependent effect
HT-1080 [6] = assay: Photocytotoxicity against human HT1080 cells at 1 uM preincubated for 24 hrs followed by red LED irradiation for 20 mins measured after 48 to 72 hrs by WST-1 assay; type: functional, cell-based
[7] = Drug uptake in human HT1080 cells at 1 uM upto 6 hrs by flow cytometric analysis; type: ADME, cell-based; details: ht-1080, 6 h
HT-1080 [8] = assay: Photocytotoxicity against human HT1080 cells at 1 uM preincubated for 24 hrs followed by red LED irradiation for 20 mins measured after 24 to 72 hrs by WST-1 assay; type: functional, cell-based
[9] = Downregulation of BCL-2 mRNA expression in human HT1080 cells at 1 uM preincubated for 24 hrs followed by red LED irradiation for 20 mins measured after 0.5 to 24 hrs by RT-PCR analysis; type: functional, cell-based; details: HT-1080
[10] = Induction of apoptosis in human HT1080 cells at 1 uM preincubated for 24 hrs measured after 6 hrs by Annexin V Alexa Fluor and PI staining based flow cytometry; type: cell-based; details: ht-1080, 6 h
[11] = Upregulation of BAX mRNA expression in human HT1080 cells at 1 uM preincubated for 24 hrs followed by red LED irradiation for 20 mins measured after 0.5 to 24 hrs by RT-PCR analysis; type: functional, cell-based; details: HT-1080
HT-1080 [12] = assay: Induction of reactive oxygen species generation in human HT1080 cells at 1 uM preincubated for 24 hrs followed by red LED irradiation for 20 mins measured upto 15 mins by DCFH-DA probe based flow cytometry; type: functional, cell-based
[13] = Upregulation of APAF1 mRNA expression in human HT1080 cells at 1 uM preincubated for 24 hrs followed by red LED irradiation for 20 mins measured after 0.5 to 24 hrs by RT-PCR analysis; type: functional, cell-based; details: HT-1080
HT-1080 [14] = assay: Induction of reactive oxygen species generation in human HT1080 cells assessed as increase in integrated median fluorescence intensity at 1 uM preincubated for 24 hrs followed by red LED irradiation for 20 mins measured after 1 min by DCFH-DA probe based flow cytometry relative to control; type: functional
HT-1080 [15] = assay: Induction of necrosis in human HT1080 cells at 1 uM preincubated for 24 hrs followed by red LED irradiation for 20 mins measured after 6 hrs by Annexin V Alexa Fluor and PI staining based flow cytometry; type: functional
[16] = Induction of necrosis in human HT1080 cells at 1 uM preincubated for 24 hrs measured after 6 hrs by Annexin V Alexa Fluor and PI staining based flow cytometry; type: cell-based; details: ht-1080, 6 h
[17] = Upregulation of NQO1 mRNA expression in human HT1080 cells at 1 uM preincubated for 24 hrs followed by red LED irradiation for 20 mins measured after 0.5 hrs by RT-PCR analysis relative to control; type: functional, cell-based; details: HT-1080
HT-1080 [18] = assay: Increase in release of mitochondrial cytochrome c release in cytosolic extracts of human HT1080 cells at 1 uM preincubated for 24 hrs followed by red LED irradiation for 20 mins measured after 0.5 hrs by ELISA method; type: functional, cell-based
[19] = Upregulation of NQO1 mRNA expression in human HT1080 cells at 1 uM preincubated for 24 hrs followed by red LED irradiation for 20 mins measured upto 24 hrs by RT-PCR analysis; type: functional, cell-based; details: HT-1080
HT-1080 [20] = assay: Increase in release of mitochondrial cytochrome c release in cytosolic extracts of human HT1080 cells at 1 uM preincubated for 24 hrs followed by red LED irradiation for 20 mins measured after 3 hrs by ELISA method; type: functional, cell-based
[21] = Upregulation of GPX1 mRNA expression in human HT1080 cells at 1 uM preincubated for 24 hrs followed by red LED irradiation for 20 mins measured after 3 to 24 hrs by RT-PCR analysis; type: functional, cell-based; details: HT-1080
[22] = Upregulation of SOD2 mRNA expression in human HT1080 cells at 1 uM preincubated for 24 hrs followed by red LED irradiation for 20 mins measured after 0.5 hrs by RT-PCR analysis relative to control; type: functional, cell-based; details: HT-1080
[23] = Drug uptake in mitochondria of human HT1080 cells at 1 uM incubated for 24 hrs by MitoTracker green dye based laser scanning confocal microscopy; type: ADME; details: ht-1080, 24 h
HT-1080 [24] = assay: Induction of DNA damage in human HT1080 cells at 1 uM preincubated for 24 hrs followed by red LED irradiation for 20 mins measured after 30 mins by ARP probe based flow cytometry; type: functional, cell-based
[25] = Upregulation of GPX1 mRNA expression in human HT1080 cells at 1 uM preincubated for 24 hrs followed by red LED irradiation for 20 mins measured after 0.5 hrs by RT-PCR analysis relative to control; type: functional, cell-based; details: HT-1080
[26] = Upregulation of TP-53 mRNA expression in human HT1080 cells at 1 uM preincubated for 24 hrs followed by red LED irradiation for 20 mins measured after 3 hrs by RT-PCR analysis; type: functional, cell-based; details: HT-1080
HT-1080 [27] = assay: Photocytotoxicity against human HT1080 cells at 1 uM preincubated for 24 hrs followed by red LED irradiation for 20 mins measured after 72 hrs by WST-1 assay; type: functional, cell-based
[28] = Drug uptake in human HT1080 cells at 1 uM upto 24 hrs by flow cytometric analysis; type: ADME, cell-based; details: ht-1080, 24 h
[29] = Induction of singlet oxygen generation in PBS at 5 uM measured within 60 mins by DPBF-based singlet oxygen trapping method in presence of light; type: physicochemical; details: buffer, 1 h

Structure (SMILES): CCN1/C(=C/C2=C([O-])C(=C\C3=[N+](CC)c4ccc(Br)cc4C3(C)C)/C2=O)C(C)(C)c2cc(Br)ccc21
Activity [1]: Non-toxic
Activity [2]: Active
Activity [3]: Dose-dependent effect
Activity [4]: Non-toxic
Drug uptake [5]: tde
Activity (HT-1080 [6]): Active

Structure (SMILES): CCCCN1/C(=C/C2=C([O-])C(=C\C3=[N+](CCCC)c4ccc(I)cc4C3(C)C)/C2=O)C(C)(C)c2cc(I)ccc21
Activity [9]: Active
Activity [1]: Non-toxic
Activity [10]: Non-toxic
Activity [11]: inactive
Activity (HT-1080 [12]): inactive
Activity [2]: Active
Activity [13]: inactive
fold change (FC) (HT-1080 [14]): 32
Activity (HT-1080 [15]): 83%
Activity [16]: Non-toxic
Activity [3]: Dose-dependent effect
fold change (FC) [17]: 5.56
Activity [4]: Non-toxic
Activity (HT-1080 [18]): Active
Drug uptake [5]: tde
Activity [19]: inactive
Activity (HT-1080 [20]): inactive
Activity [21]: inactive
fold change (FC) [22]: 5.21
Drug uptake [23]: Active
Activity (HT-1080 [8]): Active
Activity (HT-1080 [24]): Active
fold change (FC) [25]: 54.6
Activity [26]: inactive

Structure (SMILES): CC1(C)C(/C=C2/C(=O)C(/C=C3\Nc4ccccc4C3(C)C)=C2O)=Nc2ccccc21
Drug uptake [28]: Active
Activity [3]: Dose-dependent effect
Activity [4]: Non-toxic
Activity [29]: Active
Activity (HT-1080 [8]): inactive

Further lines, with some results ahead:

Activity [2]: Active
Drug uptake [7]: Active
Structure (SMILES): CC1(C)C(/C=C2/C(=O)C(/C=C3\Nc4ccc(Br)cc4C3(C)C)=C2O)=Nc2ccc(Br)cc21
Activity [3]: Dose-dependent effect
Activity [4]: Non-toxic
Activity (HT-1080 [8]): inactive

Activity [2]: Active
Drug uptake [7]: Active
Structure (SMILES): CC1(C)C(/C=C2/C(=O)C(/C=C3\Nc4ccc(I)cc4C3(C)C)=C2O)=Nc2ccc(I)cc21
Activity [3]: Dose-dependent effect
Activity [4]: Non-toxic
Activity (HT-1080 [27]): Active

Activity [2]: Active
Drug uptake [5]: tde
Drug uptake [23]: Active
Structure (SMILES): CCCCN1/C(=C/C2=C([O-])C(=C\C3=[N+](CCCC)c4ccc(Br)cc4C3(C)C)/C2=O)C(C)(C)c2cc(Br)ccc21
Activity [9]: Active
Activity [1]: Non-toxic
Activity [10]: Non-toxic
Activity [11]: inactive
Activity (HT-1080 [12]): inactive
Activity [13]: inactive
fold change (FC) (HT-1080 [14]): 15.32
Activity (HT-1080 [15]): 81.9%
Activity [16]: Non-toxic
Activity [3]: Dose-dependent effect
fold change (FC) [17]: 3.39
Activity [4]: Non-toxic
Activity (HT-1080 [18]): Active
Activity [19]: inactive
Activity (HT-1080 [20]): inactive
Activity [21]: inactive
Activity [22]: inactive
Activity (HT-1080 [8]): Active
Activity (HT-1080 [24]): Active
fold change (FC) [25]: 34.6
Activity [26]: Active

Activity [2]: Active
Drug uptake [5]: tde
Structure (SMILES): CCN1/C(=C/C2=C([O-])C(=C\C3=[N+](CC)c4ccc(I)cc4C3(C)C)/C2=O)C(C)(C)c2cc(I)ccc21
Activity [3]: Dose-dependent effect
Activity [4]: Non-toxic
Activity (HT-1080 [8]): inactive
